Our source for the Ki values is patent US20020111340A1, “Aminoalkoxybiphenylcarboxamides as histamine-3 receptor ligands and their therapeutic applications” (priority 2000, published 2002).

T1 sequence (Q9QYN8 whole entry): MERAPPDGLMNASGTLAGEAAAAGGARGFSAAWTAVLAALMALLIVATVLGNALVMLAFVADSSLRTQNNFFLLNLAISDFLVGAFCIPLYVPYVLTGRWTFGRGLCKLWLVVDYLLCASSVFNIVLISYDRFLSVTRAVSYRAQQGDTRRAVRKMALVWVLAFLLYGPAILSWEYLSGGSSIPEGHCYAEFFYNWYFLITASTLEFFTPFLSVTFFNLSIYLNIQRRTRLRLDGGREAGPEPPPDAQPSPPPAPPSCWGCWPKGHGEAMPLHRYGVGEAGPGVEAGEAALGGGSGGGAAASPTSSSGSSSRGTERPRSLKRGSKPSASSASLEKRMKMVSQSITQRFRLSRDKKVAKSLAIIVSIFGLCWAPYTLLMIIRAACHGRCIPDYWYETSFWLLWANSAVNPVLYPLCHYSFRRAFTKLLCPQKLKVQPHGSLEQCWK

The assay has as its target T1, histamine-3 receptor (Rattus norvegicus, UniProt Q9QYN8).
T1 construct: Rat cortical membranes (12 mg wet weight/tube) were incubated with; from tissue; host or cells: male Sprague-Dawley rat brain cortex membranes
The experiment in a line: Histamine-3 receptor binding, displacement of (3H)-N-α-methylhistamine from rat cortical membranes. As to conditions: male Sprague-Dawley rat brain cortical membranes; (3H)-N-α-methylhistamine ~0.6 nM; 30 minutes at 25° C.; Cheng-Prusoff.
Procedure: Briefly, male Sprague-Dawley rat brain cortices were homogenized (1 g tissue/10 mL buffer) in 50 mM Tris-HCl/5 mM EDTA containing protease inhibitor cocktail (Calbiochem) using a polytron set at 20,500 rpm. Homogenates were centrifuged for 20 minutes at 40,000× g. The supernatant was decanted, and pellets were weighed. The pellet was resuspended by polytron homogenization in 40 mL of 50 mM Tris-HCl/5 mM EDTA with protease inhibitors and centrifuged for 20 minutes at 40,000× g. […] Rat cortical membranes (12 mg wet weight/tube) were incubated with (^3H)-N-α-methylhistamine (˜0.6 nM) with or without H3 receptor antagonists in a total incubation volume of 0.5 mL of 50 mM Tris-HCl/5 mM EDTA (pH 7.7). Test compounds were dissolved in DMSO to provide a 20 mM solution, serially diluted and then added to the incubation mixtures prior to initiating the incubation assay by addition of the membranes. Thioperamide (3 μM) was used to determine nonspecific binding. Binding incubations were conducted for 30 minutes at 25° C. and terminated by addition of 2 mL of ice cold 50 mM Tris-HCl (pH 7.7) and filtration through 0.3% polyethylenimine-soaked Unifilter plates (Packard). These filters were washed 4 additional times with 2 mL of ice-cold 50 mM Tris-HCl and dried for 1 hour. Radioactivity was determined using liquid scintillation counting techniques. Results were analyzed by Hill transformation and Ki values were determined using the Cheng-Prusoff equation.
A word on the Ki: it is a measure of affinity in units of concentration, obtained from inhibition or displacement. A higher Ki goes with lower affinity. `O=C(c1ccc(-c2ccc(OCCCN3CCC[C@@H]3CO)cc2)cc1)N1CCCC1` [Example 13, [(2R)-1-(3-{[4′-(1-pyrrolidinylcarbonyl)[1,1′-biphenyl]-4-yl]oxy}propyl)pyrrolidinyl]methanol] had an inhibition constant Ki of 80 nM.

In the case of `O=C(c1ccc(-c2ccc(OCCCN3CCC[C@H]3CO)cc2)cc1)N1CCCC1` [Example 14, [(2S)-1-(3-{[4′-(1-pyrrolidinylcarbonyl)[1,1′-biphenyl]-4-yl]oxy}propyl)pyrrolidinyl]methanol], the affinity corresponds to a Ki of 6.07 nM.

`CC1CCN(CCCOc2ccc(-c3ccc(C(=O)N4[C@H](C)CC[C@H]4C)cc3)cc2)CC1` [Example 7, 1-{3-[(4′-{[(2R,5R)-2,5-dimethylpyrrolidinyl]carbonyl}[1,1′-biphenyl]-4-yl)oxy]propyl}-4-methylpiperidine] came in with an inhibition constant Ki of 3.66 nM.

`CC(C)NCCCOc1ccc(-c2ccc(C(=O)N3[C@H](C)CC[C@H]3C)cc2)cc1` [Example 4, 3-[(4′-{[(2R,5R)-2,5-dimethylpyrrolidinyl]carbonyl}[1,1′-biphenyl]-4-yl)oxy]-N-isopropyl-1-propanamine] returned a Ki of 507 nM.

`O=C(c1ccc(-c2ccc(OCCCN3CCC[C@@H](O)C3)cc2)cc1)N1CCCC1` [Example 16, (3R)-1-(3-{[4′-(1-pyrrolidinylcarbonyl)[1,1′-biphenyl]-4-yl]oxy}propyl)-3-piperidinol]: the Ki was determined as 71.5 nM.

`C[C@@H]1CC[C@@H](C)N1C(=O)c1ccc(-c2ccc(OCCCN3CCOCC3)cc2)cc1` [Example 8, 4-{3-[(4′-{[(2R,5R)-2,5-dimethylpyrrolidinyl]carbonyl}[1,1′-biphenyl]-4-yl)oxy]propyl}morpholine] had an inhibition constant (Ki) of 114 nM.

Compound `CCN(CC)CCCOc1ccc(-c2ccc(C(=O)N3[C@H](C)CC[C@H]3C)cc2)cc1` [Example 5, 3-[(4′-{[(2R,5R)-2,5-dimethylpyrrolidinyl]carbonyl}[1,1′-biphenyl]-4-yl)oxy]-N,N-diethyl-1-propanamine] showed a Ki of 13.8 nM. Compared with the last compound, the Ki is about 8.3-fold lower.

Consider `C[C@@H]1CCC[C@H](C)N1CCCOc1ccc(-c2ccc(C(=O)N3CCCC3)cc2)cc1` [Example 15, (2R,6S)-2,6-dimethyl-1-(3-{[4′-(1-pyrrolidinylcarbonyl)[1,1′-biphenyl]-4-yl]oxy}propyl)piperidine], for which the Ki turned out to be 7.18 nM.

Compound `CC(C)NC(=O)c1ccc(-c2ccc(OCCCN3[C@H](C)CC[C@H]3C)cc2)cc1` [Example 1, 4′-{3-[(2R,5R)-2,5-dimethylpyrrolidinyl]propoxy}-N-isopropyl[1,1′-biphenyl]-4-carboxamide] registered an inhibition constant (Ki) of 2.84 nM.

Take `CN(CCCOc1ccc(-c2ccc(C(=O)N3CCCC3)cc2)cc1)[C@@H]1CCN(Cc2ccccc2)C1` [Example 12, N-[(3R)-1-benzylpyrrolidinyl]-N-methyl-N-(3-{[4′-(1-pyrrolidinylcarbonyl)[1,1′-biphenyl]-4-yl]oxy}propyl)amine]: the inhibitory constant (Ki) came to 384 nM.

Take `CC1CCCN1C(=O)c1ccc(-c2ccc(OCCCN3[C@H](C)CC[C@H]3C)cc2)cc1` (stereo partly drawn) [Example 3, (2R,5R)-2,5-dimethyl-1-[3-({4′-[(2-methyl-1-pyrrolidinyl)carbonyl][1,1′-biphenyl]-4-yl}oxy)propyl]pyrrolidine]: the affinity, expressed as Ki, was 1 nM.

With `CC1CCN(C(=O)c2ccc(-c3ccc(OCCCN4[C@H](C)CC[C@H]4C)cc3)cc2)CC1` [Example 9, 1-[(4′-{3-[(2R,5R)-2,5-dimethylpyrrolidinyl]propoxy}[1,1′-biphenyl]-4-yl)carbonyl]-4-methylpiperidine], the Ki worked out at 2.63 nM.

Compound `C[C@H](c1ccccc1)N(C)CCCOc1ccc(-c2ccc(C(=O)N3CCCC3)cc2)cc1` [Example 11, N-methyl-N-[(1R)-1-phenylethyl]-N-(3-{[4′-(1-pyrrolidinylcarbonyl)[1,1′-biphenyl]-4-yl]oxy}propyl)amine] registered an inhibition constant Ki of 363 nM.
